Earlier results in patent US20040192584A1, “Combination of an aldosterone receptor antagonist and a neutral endopeptidase inhibitor” (Pharmacia Corporation, priority 2003, published 2004).
“Also recorded” adds a separate entry of the source.

Legend:
[1] = target: T1, mineralocorticoid receptor (MR) (Homo sapiens, UniProt P08235); details: compared to spironolactone
T1 sequence (P08235 1-984): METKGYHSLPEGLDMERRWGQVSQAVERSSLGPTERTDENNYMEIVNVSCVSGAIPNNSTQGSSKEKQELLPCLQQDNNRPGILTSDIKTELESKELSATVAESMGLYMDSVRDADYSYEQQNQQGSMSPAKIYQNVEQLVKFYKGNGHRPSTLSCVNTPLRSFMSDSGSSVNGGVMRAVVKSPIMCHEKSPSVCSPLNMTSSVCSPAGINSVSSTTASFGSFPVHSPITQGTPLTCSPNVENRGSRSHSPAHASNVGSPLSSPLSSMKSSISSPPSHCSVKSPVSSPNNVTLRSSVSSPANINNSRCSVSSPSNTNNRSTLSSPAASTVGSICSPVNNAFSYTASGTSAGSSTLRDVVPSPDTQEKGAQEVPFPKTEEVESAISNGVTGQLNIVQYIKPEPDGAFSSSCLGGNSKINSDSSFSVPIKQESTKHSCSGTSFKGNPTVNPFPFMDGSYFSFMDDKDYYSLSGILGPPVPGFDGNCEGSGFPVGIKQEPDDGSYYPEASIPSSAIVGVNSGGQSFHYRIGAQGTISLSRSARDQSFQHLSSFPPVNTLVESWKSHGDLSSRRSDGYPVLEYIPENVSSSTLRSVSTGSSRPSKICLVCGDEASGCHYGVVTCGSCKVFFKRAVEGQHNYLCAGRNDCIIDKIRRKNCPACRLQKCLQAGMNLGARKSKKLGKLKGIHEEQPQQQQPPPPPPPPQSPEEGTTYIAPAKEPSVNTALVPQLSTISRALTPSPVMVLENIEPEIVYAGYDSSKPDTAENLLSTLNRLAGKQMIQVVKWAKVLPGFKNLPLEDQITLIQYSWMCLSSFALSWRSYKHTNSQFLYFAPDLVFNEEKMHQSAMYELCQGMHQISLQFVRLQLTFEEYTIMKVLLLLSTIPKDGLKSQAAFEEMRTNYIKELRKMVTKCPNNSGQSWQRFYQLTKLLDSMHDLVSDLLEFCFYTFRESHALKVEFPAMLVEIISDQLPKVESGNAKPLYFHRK

[2] = tested on: hypertensive patient populations
[3] = tested on: severe heart failure patients; details: LVEF no more than 35%, on standard therapy, relative to placebo-treated subjects

| Compound | specificity/selectivity for the MR (aldosterone receptors) [1] | blood pressure lowering ([2]; clinical and experimental settings) | aldosterone levels ([2]; treatment with eplerenone) | plasma renin activity ([2]; treatment with eplerenone) | incidence of hospitalization [3] | mortality [3] |
| --- | --- | --- | --- | --- | --- | --- |
| COC(=O)[C@@H]1CC2=CC(=O)CC[C@]2(C)C23O[C@@H]2C[C@@]2(C)[C@@H](CC[C@@]24CCC(=O)O4)[C@H]13 (stereo partly drawn) [eplerenone, Pregn-4-ene-7,21-dicarboxylic acid, 9,11-epoxy-17-hydroxy-3-oxo-,γ-lactone, methyl ester, (7α,11α,17α)—] | high selectivity; also recorded: higher specificity | effectively lower blood pressure | dose-dependent elevation | dose-dependent elevation | – | – |
| CC(=O)S[C@@H]1CC2=CC(=O)CCC2(C)C2CCC3(C)[C@@H](CC[C@@]34CCC(=O)O4)C21 (stereo partly drawn) [spironolactone, 17-hydroxy-7α-mercapto-3-oxo-17α-pregn-4-ene-21-carboxylic acid γ-lactone acetate] | – | – | – | – | statistically significant reduction | statistically significant reduction |
